Legend:
human MC-1R = biological target: T1, human MC-1R (Homo sapiens, UniProt Q01726); assay: MC-1R cAMP SPA assay in HBL cells; format: cell-based; settings: read-out: potency as agonist of the MC-1R
T1 construct: HBL cells, a human melanoma cell line licensed from Prof; G. Ghanem; endogenous in cells; host or cells: HBL human melanoma cells
Description: HBL cells, a human melanoma cell line licensed from Prof. G. Ghanem (Lab. of Oncology & Exp. Surgery, Free University of Brussels, Brussels, Belgium) were used as a source of the human MC-1R. cAMP was measured using the cAMP SPA Direct Screening Assay System from Amersham (RPA 559). 20,000 HBL cells were plated into each well of a half-area 96 well white plate and were used between 16-48 hours after plating. Cells were incubated at 37° C. for 15 minutes in 25 μM IBMX to inhibit phosphodieterase activity. As per kit instructions, Assay Buffer Concentrate was diluted 1 to 50 with dH2O to prepare Assay Buffer (50 mM acetate buffer containing 0.01% sodium azide). Vials containing rabbit anti-succinyl cAMP serum and the tracer, adenosine 3′,5′-cyclic phosphoric acid 2′-0-succinyl-3-[^125I] iodotyrosine methyl ester, were resuspended with 7.5 ml Assay Buffer. SPA anti-rabbit reagent (donkey anti-rabbit IgG coupled to SPA PVT beads) was resuspended with 15 ml Assay Buffer. All reagents were stored at 4° C. after reconstitution. Melanocortin ligands or compounds were prepared in DMSO and added to the IBMX-treated cells as 100×concentrated stocks. […] Plates were subsequently counted for 6 minutes per sample in a TopCount scintillation reader with background subtraction. Data was analyzed in relation to a cAMP standard curve.

[1] = tested on: LPS-induced TNF-α production; assay: endotoxin-induced TNF-α accumulation model in Balb/C mice; format: in vivo; settings: for % Inhibition of LPS-induced TNF-α levels: balb/C mice, rolipram 10 ug/kg, NDP-MSH 2.5 mg/kg, alone or combined, co-administered with LPS by tail vein injection
Description: Melanocortin receptor agonists and cAMP-PDE inhibitors were evaluated for anti-inflammatory activity in vivo by using an endotoxin-induced TNF-α accumulation model in Balb/C mice. Compounds were administered either by s.c injection or co-injected with endotoxin in the tail vein. Both rolipram and melanocortin agonists inhibit endotoxin-induced TNF-α accumulation in this model.
FIG. 1 reports the results of administration of the compound of Example 11, below, in this model. Example 11 was administered by s.c. injection to five mice for each dose of 1.2 μmol/kg, 3.7 μmol/kg, 11.1 μmol/kg, 33.3 μmol/kg, and 100 μmol/kg. The compound was administered 1 hour prior to the LPS-induced challenge.
A second experiment was conducted in which the effect of the cAMP-PDE inhibitor rolipram and the melanocortin receptor agonist NDP-MSH was determined.
The four bar graphs of FIG. 2 reflect the inhibition in LPS-induced TNF-α a production in balb/C mice upon administration of (1) no agent (control); (2) 10 ug/kg ROLIPRAM (3) 2.5 mg/kg NDP-MSH and (4) 10 ug/kg ROLIPRAM in combination with 2.5 mg/kg NDP-MSH. Compounds were co-administered with LPS by tail vein injection. […] Administration of 2.5 mg/kg NDP-MSH inhibited TNF-α levels by 64%.

T1 sequence (Q01726 whole entry): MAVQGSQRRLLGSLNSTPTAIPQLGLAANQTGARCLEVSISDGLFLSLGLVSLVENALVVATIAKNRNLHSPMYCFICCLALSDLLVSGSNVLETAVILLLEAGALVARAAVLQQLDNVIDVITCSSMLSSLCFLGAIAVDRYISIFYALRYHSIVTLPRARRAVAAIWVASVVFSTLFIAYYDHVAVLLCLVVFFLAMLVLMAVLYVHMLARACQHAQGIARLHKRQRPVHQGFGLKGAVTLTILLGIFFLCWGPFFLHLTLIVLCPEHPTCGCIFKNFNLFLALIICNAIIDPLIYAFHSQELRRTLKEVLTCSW

Row | EC50 (human MC-1R) [nM] | Molecule | inhibition of endotoxin-induced TNF-α accumulation (in words) ([1]; Balb/C mice, s.c. injection or co-injected with endotoxin in the tail vein) | % Inhibition of LPS-induced TNF-α levels [1] [%]
1 | ~20 | CCCC(=O)C1(c2ccccc2)CCN(C(=O)[C@@H](Cc2ccc(OC)cc2)NC(=O)[C@@H](N)Cc2cncn2C)CC1 [Example 11] | – | –
2 | – | COc1ccc(C2CNC(=O)C2)cc1OC1CCCC1 (stereo not shown) [Rolipram] | inhibit | 47
3 | – | NDP-MSH | – | 64
